Measured values as given in ChEMBL document CHEMBL5036365, “A Molecular Networking Based Discovery of Diketopiperazine Heterodimers and Aspergillicins from Aspergillus caelatus” (J Nat Prod, 2022).
Active and inactive are the calls of the source.

Experiments:
Fusarium graminearum [1] = experiment: Antifungal activity against Fusarium graminearum BRFM 1982 at 160 ug/ml incubated for 24 hrs by agar based assay; type: functional, organism-based; conditions: dose 160.0 µg/ml
Pyricularia grisea [2] = experiment: Antifungal activity against Magnaporthe grisea CF-105765 at 160 ug/ml incubated for 24 hrs by agar based assay; type: functional, organism-based; conditions: dose 160.0 µg/ml
Botrytis cinerea [3] = experiment: Antifungal activity against Botrytis cinerea B05.10 at 160 ug/ml incubated for 24 hrs by agar based assay; type: functional, organism-based; conditions: dose 160.0 µg/ml
HepG2 [4] = experiment: Cytotoxicity against human HepG2 cells at 40 ug/ml treated for 72 hrs by MTT assay; type: functional, cell-based; conditions: dose 40.0 µg/ml
Botrytis cinerea [5] = experiment: Antifungal activity against Botrytis cinerea B05.10 at 50 ug/ml incubated for 24 hrs by agar based assay; type: functional, organism-based; conditions: dose 50.0 µg/ml
Pyricularia grisea [6] = experiment: Antifungal activity against Magnaporthe grisea CF-105765 at 50 ug/ml incubated for 24 hrs by agar based assay; type: functional, organism-based; conditions: dose 50.0 µg/ml
Fusarium graminearum [7] = experiment: Antifungal activity against Fusarium graminearum BRFM 1982 at 50 ug/ml incubated for 24 hrs by agar based assay; type: functional, organism-based; conditions: dose 50.0 µg/ml
HepG2 [8] = experiment: Cytotoxicity against human HepG2 cells at 12.5 ug/ml treated for 72 hrs by MTT assay; type: functional, cell-based; conditions: dose 12.5 µg/ml
Botrytis cinerea [9] = experiment: Antifungal activity against Botrytis cinerea B05.10 at 80 ug/ml incubated for 24 hrs by agar based assay; type: functional, organism-based; conditions: dose 80.0 µg/ml
Fusarium graminearum [10] = experiment: Antifungal activity against Fusarium graminearum BRFM 1982 at 80 ug/ml incubated for 24 hrs by agar based assay; type: functional, organism-based; conditions: dose 80.0 µg/ml
HepG2 [11] = experiment: Cytotoxicity against human HepG2 cells at 20 ug/ml treated for 72 hrs by MTT assay; type: functional, cell-based; conditions: dose 20.0 µg/ml
Pyricularia grisea [12] = experiment: Antifungal activity against Magnaporthe grisea CF-105765 at 80 ug/ml incubated for 24 hrs by agar based assay; type: functional, organism-based; conditions: dose 80.0 µg/ml
Fusarium graminearum [13] = experiment: Antifungal activity against Fusarium graminearum BRFM 1982 at 100 ug/ml incubated for 24 hrs by agar based assay; type: functional, organism-based; conditions: dose 100.0 µg/ml
HepG2 [14] = experiment: Cytotoxicity against human HepG2 cells at 25 ug/ml treated for 72 hrs by MTT assay; type: functional, cell-based; conditions: dose 25.0 µg/ml
Pyricularia grisea [15] = experiment: Antifungal activity against Magnaporthe grisea CF-105765 at 100 ug/ml incubated for 24 hrs by agar based assay; type: functional, organism-based; conditions: dose 100.0 µg/ml
Botrytis cinerea [16] = experiment: Antifungal activity against Botrytis cinerea B05.10 at 100 ug/ml incubated for 24 hrs by agar based assay; type: functional, organism-based; conditions: dose 100.0 µg/ml

Measured: Activity

CN1C(=O)[C@H](Cc2c[nH]c3cc([C@@]45C[C@H]6C(=O)N(C)[C@H](Cc7ccccc7)C(=O)N6[C@@H]4N(C=O)c4ccccc45)ccc23)NC(=O)[C@H]1Cc1ccccc1
inactive: Fusarium graminearum [1] | Pyricularia grisea [2] | Botrytis cinerea [3] | HepG2 [4]

CN1C(=O)[C@H](Cc2c[nH]c3ccc([C@]45C[C@H]6C(=O)N(C)[C@H](Cc7ccccc7)C(=O)N6[C@H]4Nc4ccccc45)cc23)NC(=O)[C@H]1Cc1ccccc1
inactive: Fusarium graminearum [1] | Pyricularia grisea [2] | Botrytis cinerea [3] | HepG2 [4]

COc1ccc(C[C@H]2C(=O)N[C@@H](C(C)C)C(=O)O[C@H](C)[C@H](NC(C)=O)C(=O)N[C@H](C(C)C)C(=O)N3CCC[C@H]3C(=O)N3CCC[C@H]3C(=O)N2C)cc1
inactive: Fusarium graminearum [1] | Pyricularia grisea [2] | Botrytis cinerea [3] | HepG2 [4]

CC[C@H](C)[C@H]1NC(=O)[C@@H](NC(C)=O)[C@@H](C)OC(=O)[C@H](C(C)C)NC(=O)[C@H](Cc2ccc(OC)cc2)N(C)C(=O)[C@@H]2CCCN2C(=O)[C@@H]2CCCN2C1=O
inactive: Fusarium graminearum [1] | Pyricularia grisea [2] | Botrytis cinerea [3] | HepG2 [4]

CN1C(=O)[C@H](Cc2c[nH]c3cc([C@@]45C[C@H]6C(=O)N(C)[C@H](Cc7ccccc7)C(=O)N6[C@@H]4Nc4ccccc45)ccc23)NC(=O)[C@H]1Cc1ccccc1
inactive: Botrytis cinerea [5] | Pyricularia grisea [6] | Fusarium graminearum [7] | HepG2 [8]

CC[C@H](C)[C@H]1NC(=O)[C@@H](NC(C)=O)[C@@H](C)OC(=O)[C@H](C(C)C)NC(=O)[C@H](Cc2ccccc2)N(C)C(=O)[C@@H]2CCCN2C(=O)[C@@H]2CCCN2C1=O
inactive: Botrytis cinerea [9] | Fusarium graminearum [10] | HepG2 [11] | Pyricularia grisea [12]

CN1C(=O)[C@H](Cc2cn([C@@]34C[C@H]5C(=O)N(C)[C@H](Cc6ccccc6)C(=O)N5[C@@H]3Nc3ccccc34)c3ccccc23)NC(=O)[C@H]1Cc1ccccc1
inactive: Fusarium graminearum [13] | HepG2 [14] | Pyricularia grisea [15] | Botrytis cinerea [16]

CN1C(=O)[C@H](Cc2cn([C@@]34C[C@H]5C(=O)N(C)[C@H](Cc6ccccc6)C(=O)N5[C@@H]3N(C=O)c3ccccc34)c3ccccc23)NC(=O)[C@H]1Cc1ccccc1
inactive: Fusarium graminearum [1] | Pyricularia grisea [2] | Botrytis cinerea [3] | HepG2 [4]
